Source: article PMC5926414 (Japanese Journal of Cancer Research : Gann, 2000)
Like-named read-outs stand apart in the source and are kept apart here. Square brackets hold non-standard residues; d marks the D form. Peptide text beside a SMILES is read from it. * marks the point of attachment. X1 = COC1=CC(=O)N(C(=O)[C@@H](O*)C(C)C)[C@H]1Cc1ccccc1; NMe2Val = CC(C)[C@@H](C(=O)*)N(C)C; NMeV = CN[C@H](C(=O)O)C(C)C

Assays:
[1] = target: T1, porcine brain tubulin (Sus scrofa, UniProt P02550+P02554); assay type: binding
T1 sequence (P02550 whole entry): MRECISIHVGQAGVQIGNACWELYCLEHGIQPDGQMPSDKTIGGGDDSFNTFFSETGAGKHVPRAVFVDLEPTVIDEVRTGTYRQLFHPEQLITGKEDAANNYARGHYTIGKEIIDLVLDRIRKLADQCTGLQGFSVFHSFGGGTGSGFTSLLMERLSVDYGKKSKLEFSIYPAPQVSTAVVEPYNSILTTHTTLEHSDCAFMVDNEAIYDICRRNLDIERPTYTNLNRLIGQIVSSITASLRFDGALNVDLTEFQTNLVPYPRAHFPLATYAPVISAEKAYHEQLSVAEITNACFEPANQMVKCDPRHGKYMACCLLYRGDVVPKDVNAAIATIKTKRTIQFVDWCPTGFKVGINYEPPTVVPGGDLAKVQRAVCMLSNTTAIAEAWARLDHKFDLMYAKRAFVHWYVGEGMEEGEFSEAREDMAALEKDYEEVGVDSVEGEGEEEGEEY
T1 sequence (P02554 whole entry): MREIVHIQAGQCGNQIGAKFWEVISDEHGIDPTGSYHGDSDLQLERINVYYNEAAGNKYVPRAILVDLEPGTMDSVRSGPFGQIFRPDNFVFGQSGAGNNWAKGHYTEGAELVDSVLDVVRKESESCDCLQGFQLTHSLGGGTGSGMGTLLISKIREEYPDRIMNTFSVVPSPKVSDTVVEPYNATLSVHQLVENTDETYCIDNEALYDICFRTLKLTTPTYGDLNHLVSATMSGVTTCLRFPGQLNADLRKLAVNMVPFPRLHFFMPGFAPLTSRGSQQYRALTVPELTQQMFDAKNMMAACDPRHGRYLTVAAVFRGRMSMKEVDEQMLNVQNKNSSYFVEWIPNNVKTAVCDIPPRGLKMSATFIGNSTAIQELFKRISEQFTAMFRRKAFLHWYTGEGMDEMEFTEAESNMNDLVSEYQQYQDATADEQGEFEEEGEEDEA

[2] = test system: porcine brain tubulin; assay type: binding
[3] = target: T2, bovine brain tubulin (Bos taurus, UniProt P81947+Q6B856); experiment: biochemical
T2 sequence (P81947 whole entry): as the sequence (P02550 whole entry) above, with S136L, G232S, A265I, T340S, E358Q counted along it
T2 sequence (Q6B856 whole entry): as the sequence (P02554 whole entry) above, with A55T, V170M, A296S, V316I, G440E, E441G counted along it

[4] = target: T2, bovine brain tubulin; conditions: read-out: IC50, inhibition of monosodium glutamate-induced tubulin polymerization; in 4% DMSO; ref 8 (Bai et al.); cited from earlier work
[5] = target: T3, porcine brain microtubule protein (Sus scrofa, UniProt P02550+P02554); experiment: biochemical
T3 sequence (P02550 whole entry): as the sequence (P02550 whole entry) above
T3 sequence (P02554 whole entry): as the sequence (P02554 whole entry) above

[6] = test system: porcine brain tubulin; assay type: biochemical
[7] = target: T1, porcine brain tubulin; experiment: biochemical; assay type: binding
[8] = test system: porcine brain tubulin; conditions: ref 28 (Huang et al.); cited from earlier work
[9] = target: T3, porcine brain microtubule protein; experiment: biochemical; conditions: read-out: inhibition of microtubule polymerization, agent alone

SMILES | displacement of [3H]TZT-1027 on tubulin [1] | displacement of [3H]VLB on tubulin [1] | inhibition of [3H]GTP binding to tubulin [2] | IC50 [3] [nM] | effect on tubulin polymerization at high concentration [3] | inhibition at 3 µM ([3]; read-out: inhibition of monosodium glutamate-induced tubulin polymerization) [%] | IC50 [4] [nM] | IC50 [5] [nM] | inhibition of GTP hydrolysis on tubulin [6] | inhibitory effect on microtubule polymerization at high concentration [5] | Bmax, binding to tubulin (one binding site) [7] [nM/mg protein] | Kd [7] [nM] | concentration with inhibitory effect on the binding of GTP to tubulin [8] | inhibition at 3 µM [9] [%]
CC(=O)O[C@H]1C(=O)[C@@]2(C)[C@H]([C@H](OC(=O)c3ccccc3)[C@]3(O)C[C@H](OC(=O)[C@H](O)[C@@H](NC(=O)c4ccccc4)c4ccccc4)C(C)=C1C3(C)C)[C@]1(OC(C)=O)CO[C@@H]1C[C@@H]2O [PTX, paclitaxel] | did not have remarkable inhibitory effects | did not have remarkable inhibitory effects | – | – | – | – | – | – | – | – | – | – | – | –
CC[C@H](C)[C@@H]([C@@H](CC(=O)N1CCC[C@H]1[C@H](OC)[C@@H](C)C(=O)N[C@@H](Cc1ccccc1)c1nccs1)OC)N(C)C(=O)[C@@H](NC(=O)[C@H](C(C)C)N(C)C)C(C)C [dolastatin 10] | completely displaced | completely displaced | concentration-dependent inhibition | 2800 | no further increase in inhibition | 88 | 1200 | 2300 ± 700 | concentration-dependent inhibition | – | – | – | – | –
COC1=CC(=O)N(C(=O)[C@@H](OC(=O)[C@@H]2CCCN2C(=O)[C@@H]2CCCN2C(=O)[C@H](C(C)C)N(C)C(=O)[C@@H](NC(=O)[C@H](C(C)C)N(C)C)C(C)C)C(C)C)[C@H]1Cc1ccccc1 [dolastatin 15] (NMe2Val-V[NMeV]PP-X1) | did not have remarkable inhibitory effects | did not have remarkable inhibitory effects | – | – | – | – | – | – | concentration-dependent inhibition | – | – | – | – | –
CC[C@]1(O)C[C@H]2CN(CCc3c([nH]c4ccccc34)[C@@](C(=O)OC)(c3cc4c(cc3OC)N(C=O)[C@H]3[C@@](O)(C(=O)OC)[C@H](OC(C)=O)[C@]5(CC)C=CCN6CC[C@]43[C@@H]65)C2)C1 [VCR, vincristine] | the displacement was not complete | – | – | – | – | – | – | 1600 ± 400 | – | slight decrease in inhibitory effect | – | – | – | –
CC[C@]1(O)C[C@@H]2CN(CCc3c([nH]c4ccccc34)[C@@](C(=O)OC)(c3cc4c(cc3OC)N(C)[C@H]3[C@@](O)(C(=O)OC)[C@H](OC(C)=O)[C@]5(CC)C=CCN6CC[C@]43[C@@H]65)C2)C1 [VLB, vinblastine] | only incompletely | – | no inhibitory effect | 600 | aggregation | – | – | 2700 ± 600 | concentration-dependent inhibition | slight decrease in inhibitory effect | 6.0±0.26 | 200 ± 40 | above 100 M | 64.7
